Test results from patent US9573954B2, “Pyrazolopyrimidine compounds” (University Health Network, priority 2012, dated 2017).
Like-named read-outs stand apart in the source and are kept apart here.

Tests used:
[1] = test system: breast cancer cells (MDA-MB-468); assay: Cancer cell line growth inhibition, Sulforhodamine B assay, MDA-MB-468; assay type: cell-based; conditions: read-out: Cancer Cell Line GI50 Range MDA-MB-468
In short: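 MDA-MB-468 cells exposed 5 days to compound at final 10 nM to 50 μM in DMEM with 10% FBS. Growth measured by sulforhodamine B protein staining after TCA fixation, absorbance 570 nm; inhibition relative to DMSO-only cells, GI50 determined for cytotoxic compounds.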

human TTK = biological target: T1, human TTK (Homo sapiens, UniProt P33981); assay: TTK inhibition assay (indirect ELISA); assay type: biochemical; conditions: 100 μM ATP; read-out: TTK IC50 Range
T1 construct: Active TTK was purchased from Invitrogen as an amino terminal GST fusion of full length human TTK; purchased Invitrogen
T1 sequence (P33981 1-857): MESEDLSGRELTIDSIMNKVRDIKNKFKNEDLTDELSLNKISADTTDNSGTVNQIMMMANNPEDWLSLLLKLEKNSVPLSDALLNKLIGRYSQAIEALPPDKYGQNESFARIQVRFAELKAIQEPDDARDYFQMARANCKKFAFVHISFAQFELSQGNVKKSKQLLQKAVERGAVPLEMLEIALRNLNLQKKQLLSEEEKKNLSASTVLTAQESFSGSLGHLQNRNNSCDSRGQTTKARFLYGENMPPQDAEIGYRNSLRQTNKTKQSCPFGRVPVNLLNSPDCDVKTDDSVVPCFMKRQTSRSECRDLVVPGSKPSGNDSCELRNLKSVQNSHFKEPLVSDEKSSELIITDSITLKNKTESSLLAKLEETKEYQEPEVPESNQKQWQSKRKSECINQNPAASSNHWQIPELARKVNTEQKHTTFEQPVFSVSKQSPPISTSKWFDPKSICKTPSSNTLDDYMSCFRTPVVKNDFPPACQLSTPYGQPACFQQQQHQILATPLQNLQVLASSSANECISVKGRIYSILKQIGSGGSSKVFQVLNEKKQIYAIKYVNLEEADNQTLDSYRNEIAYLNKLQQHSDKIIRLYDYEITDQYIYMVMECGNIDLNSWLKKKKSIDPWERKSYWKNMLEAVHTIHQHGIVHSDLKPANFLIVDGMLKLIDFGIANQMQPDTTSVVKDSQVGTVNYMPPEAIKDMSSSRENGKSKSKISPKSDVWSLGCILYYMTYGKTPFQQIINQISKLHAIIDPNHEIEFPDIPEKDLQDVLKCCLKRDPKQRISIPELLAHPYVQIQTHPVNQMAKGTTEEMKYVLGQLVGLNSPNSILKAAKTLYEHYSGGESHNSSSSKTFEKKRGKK
In short: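 Activity detected by indirect ELISA after compounds sat with full-length GST-TTK for 5 min prior to starting the reaction with ATP. IC50 came from a four-parameter logistic curve of % inhibition, calculated against background and uninhibited control wells.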

[2] = test system: colon cancer cells (HCT116); assay: Cancer cell line growth inhibition, Sulforhodamine B assay, HCT116; assay type: cell-based; conditions: read-out: Cancer Cell Line GI50 Range HCT116
In short: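 HCT116 cells, 1000–4000 per well, seeded 24 h ahead, then treated 5 days with compound at 10 nM to 50 μM final in DMEM with 10% FBS. Growth measured by sulforhodamine B staining after TCA fixation, A570; GI50 from inhibition relative to DMSO-only cells.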

[3] = test system: ovarian cancer cells (OVCAR-3); assay: Cancer cell line growth inhibition, Sulforhodamine B assay, OVCAR-3; assay type: cell-based; conditions: read-out: Cancer Cell Line GI50 Range OVCAR-3
In short: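 OVCAR-3 cells were seeded 24 h before compound addition, then exposed for 5 days to final concentrations of 10 nM to 50 μM in DMEM with 10% FBS. Growth was measured by TCA fixation and sulforhodamine B staining with absorbance at 570 nm. Inhibition was relative to DMSO-only cells, and GI50 came from curve fitting.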

[4] = Homo sapiens, MDA-MB-468, MDA-MB-468 breast cancer cell line
[5] = Homo sapiens, HCT-116, HCT116 colon cancer cell line
[6] = Homo sapiens, OVCAR-3, OVCAR-3 ovarian cancer cell line

| SMILES | GI50 [1, 4] | IC50 (human TTK) | GI50 [2, 5] | GI50 [3, 6] | GI50 ([1]; MDA-MB-468 breast cancer cell line) | GI50 ([2]; HCT116 colon cancer cell line) | GI50 ([3]; OVCAR-3 ovarian cancer cell line) |
| --- | --- | --- | --- | --- | --- | --- | --- |
| Cc1cc(-c2cnn3c(NCC4CCOCC4)cc(NCC4(CO)CC4)nc23)ccc1C(=O)NC1CC1 [Example C113] | 100 to 500 nM | < 100 nM | 100 to 500 nM | 100 to 500 nM |  |  |  |
| Cc1cc(-c2cnn3c(NCC4CCOCC4)cc(NCCN4CCOCC4)nc23)ccc1C(=O)NC1CC1 [Example C114] | > 500 nM | < 100 nM | > 500 nM | > 500 nM |  |  |  |
| Cc1cc(-c2cnn3c(NCC4CCOCC4)cc(N[C@@H](CO)C(C)C)nc23)ccc1C(=O)NC1CC1 [Example C121] | 100 to 500 nM | < 100 nM | 100 to 500 nM | > 500 nM |  |  |  |
| Cc1cc(-c2cnn3c(NCC4CCOCC4)cc(N[C@H]4CCC[C@@H]4O)nc23)ccc1C(=O)NC1CC1 [Example C123] | ≤ 100 nM | < 100 nM | ≤ 100 nM | 100 to 500 nM |  |  |  |
| Cc1cc(-c2cnn3c(NCC4CCOCC4)cc(N[C@@H]4CCCC[C@H]4O)nc23)ccc1C(=O)NC1CC1 [Example C124] | 100 to 500 nM | < 100 nM | 100 to 500 nM | 100 to 500 nM |  |  |  |
| Cc1cc(-c2cnn3c(NCC4CCOCC4)cc(N[C@H]4CCCC[C@@H]4O)nc23)ccc1C(=O)NC1CC1 [Example C125] | ≤ 100 nM | < 100 nM | ≤ 100 nM | 100 to 500 nM |  |  |  |
| Cc1cc(-c2cnn3c(NCC4CCOCC4)cc(N[C@H]4CCC[C@@H]4O)nc23)ccc1C(=O)NC1CC1 [Example C126] |  | < 100 nM |  |  | ≤ 100 nM | ≤ 100 nM | ≤ 100 nM |
| CC[C@H](Nc1cc(NCC2CCOCC2)n2ncc(-c3ccc(C(=O)NC4CC4)c(C)c3)c2n1)C(C)(C)O [Example C127] | 100 to 500 nM | < 100 nM | ≤ 100 nM | 100 to 500 nM |  |  |  |
| Cc1cc(-c2cnn3c(NCC4CCOCC4)cc(N[C@H]4CCCC[C@H]4CO)nc23)ccc1C(=O)NC1CC1 [Example C131] | 100 to 500 nM | < 100 nM | 100 to 500 nM | > 500 nM |  |  |  |
| Cc1cc(-c2cnn3c(NCCCn4ccnc4)cc(N[C@H]4CCCC[C@H]4O)nc23)ccc1C(=O)NC1CC1 [Example C132] | 100 to 500 nM | < 100 nM | > 500 nM | > 500 nM |  |  |  |
| CC[C@H](Nc1cc(NC[C@H]2CCOC2)n2ncc(-c3ccc(C(=O)NC4CC4)c(C)c3)c2n1)[C@H](C)O [Example C133] | 100 to 500 nM | < 100 nM | 100 to 500 nM | 100 to 500 nM |  |  |  |
| CC[C@H](Nc1cc(NC[C@@H]2CCOC2)n2ncc(-c3ccc(C(=O)NC4CC4)c(C)c3)c2n1)[C@H](C)O [Example C134] | 100 to 500 nM | < 100 nM | 100 to 500 nM | 100 to 500 nM |  |  |  |
| Cc1cc(-c2cnn3c(NCC4CCOCC4)cc(N[C@@H]4CCOC4)nc23)ccc1C(=O)NC1CC1 [Example C136] | ≤ 100 nM | < 100 nM | ≤ 100 nM | 100 to 500 nM |  |  |  |
| Cc1cc(-c2cnn3c(NCC4CCOCC4)cc(N[C@H]4CCOC4)nc23)ccc1C(=O)NC1CC1 [Example C138] | 100 to 500 nM | < 100 nM | ≤ 100 nM | 100 to 500 nM |  |  |  |
| Cc1cc(-c2cnn3c(NCC4CCOCC4)cc(NC4(CO)CC4)nc23)ccc1C(=O)NC1CC1 [Example C139] | 100 to 500 nM | < 100 nM | 100 to 500 nM | 100 to 500 nM |  |  |  |
| Cc1cc(-c2cnn3c(NCC4CCOCC4)cc(NC4CC5(COC5)C4)nc23)ccc1C(=O)NC1CC1 [Example C141] | 100 to 500 nM | < 100 nM | ≤ 100 nM | 100 to 500 nM |  |  |  |
| Cc1cc(-c2cnn3c(NCC4CCOCC4)cc(N4CC[C@H](O)C4)nc23)ccc1C(=O)NC1CC1 [Example C143] | > 500 nM | 100 to 500 nM | > 500 nM | > 500 nM |  |  |  |

| SMILES | GI50 [1, 4] | IC50 (human TTK) | GI50 [2, 5] | GI50 [3, 6] | GI50 ([1]; MDA-MB-468 breast cancer cell line) | GI50 ([2]; HCT116 colon cancer cell line) | GI50 ([3]; OVCAR-3 ovarian cancer cell line) |
| --- | --- | --- | --- | --- | --- | --- | --- |
| Cc1cc(-c2cnn3c(NCC4(F)CCN(C)CC4)cc(Oc4cccnc4)nc23)ccc1C(=O)NC1CC1 [Example C147] | 100 to 500 nM | < 100 nM | 100 to 500 nM | > 500 nM |  |  |  |
| Cc1cc(-c2cnn3c(NCC4CC4)cc(NC4(CO)CCCC4)nc23)ccc1C(=O)NC1CC1 [Example C148] | 100 to 500 nM | < 100 nM | 100 to 500 nM | > 500 nM |  |  |  |
| Cc1cc(-c2cnn3c(NCC4CCOCC4)cc(-c4ccnn4C)nc23)ccc1C(=O)NC1CC1 [Example C151] | 100 to 500 nM | < 100 nM | ≤ 100 nM | 100 to 500 nM |  |  |  |
| Cc1cc(-c2cnn3c(NCC4CC4)cc(Oc4cccnc4)nc23)ccc1C(=O)NC1CC1 [Example C152] | ≤ 100 nM | < 100 nM | ≤ 100 nM | ≤ 100 nM |  |  |  |
| Cc1cc(-c2cnn3c(NCC4CC4)cc(NC4CCOCC4)nc23)ccc1C(=O)NC1CC1 [Example C153] | 100 to 500 nM | < 100 nM | ≤ 100 nM | 100 to 500 nM |  |  |  |
| Cc1cc(-c2cnn3c(NC[C@H]4C[C@@H](O)C4)cc(NC4CCOCC4)nc23)ccc1C(=O)NC1CC1 [Example C156] | 100 to 500 nM | < 100 nM | 100 to 500 nM | 100 to 500 nM |  |  |  |
| Cc1cc(-c2cnn3c(NCC(C)C)cc(N[C@H]4CCCC[C@H]4O)nc23)ccc1C(=O)NC1CC1 [Example C157] | ≤ 100 nM | < 100 nM | ≤ 100 nM | ≤ 100 nM |  |  |  |
| Cc1cc(-c2cnn3c(NCC(C)C)cc(N[C@H](CO)C(C)C)nc23)ccc1C(=O)NC1CC1 [Example C158] | 100 to 500 nM | < 100 nM | ≤ 100 nM | 100 to 500 nM |  |  |  |
| Cc1cc(-c2cnn3c(NC[C@H]4C[C@@H](O)C4)cc(Oc4cccnc4)nc23)ccc1C(=O)NC1CC1 [Example C159] | ≤ 100 nM | < 100 nM | ≤ 100 nM | ≤ 100 nM |  |  |  |
| Cc1cc(-c2cnn3c(NCC4CCOCC4)cc(N4CCC[C@H]4CO)nc23)ccc1C(=O)NC1CC1 [Example C161] | 100 to 500 nM | < 100 nM | ≤ 100 nM | 100 to 500 nM |  |  |  |
| Cc1cc(-c2cnn3c(NCC4CCOCC4)cc(N[C@H](CO)C4CCCCC4)nc23)ccc1C(=O)NC1CC1 [Example C163] | 100 to 500 nM | < 100 nM | ≤ 100 nM | 100 to 500 nM |  |  |  |
| Cc1cc(-c2cnn3c(NCC4CCOCC4)cc(N4CCC[C@@H]4CO)nc23)ccc1C(=O)NC1CC1 [Example C164] | 100 to 500 nM | < 100 nM | 100 to 500 nM | > 500 nM |  |  |  |
| Cc1cc(-c2cnn3c(NCC4(F)CCNCC4)cc(NC4CCCC4)nc23)ccc1C(=O)NC1CC1 [Example C169] | > 500 nM | < 100 nM | 100 to 500 nM | > 500 nM |  |  |  |
| Cc1cc(-c2cnn3c(NCC4(F)CCN(C)CC4)cc(NC4CCCC4)nc23)ccc1C(=O)NC1CC1 [Example C170] | 100 to 500 nM | < 100 nM | 100 to 500 nM | > 500 nM |  |  |  |
| Cc1cc(-c2cnn3c(NC[C@H]4C[C@H](O)C4)cc(NC4CCCC4)nc23)ccc1C(=O)NC1CC1 [Example C172] | ≤ 100 nM | < 100 nM | ≤ 100 nM | ≤ 100 nM |  |  |  |
| Cc1cc(-c2cnn3c(NCC4(F)CCNCC4)cc(OC4CCCC4)nc23)ccc1C(=O)NC1CC1 [Example C173] | > 500 nM | < 100 nM | 100 to 500 nM | > 500 nM |  |  |  |
